In patent US7488738B2, “Aminophenoxyacetic acid derivatives and pharmaceutical composition containing thereof” (Asubio Pharma Co., Ltd., priority 1998, dated 2009):

Legend:
[1] = system: calbindin D28Kd; test: Calbindin D28Kd inducing effect (western blot); format: cell-based, rats of Wister strain; details: fetal rat cerebral cortex cells, none-treated control = 100
Experimental: Biological Test 2: Calbindin D28Kd Inducing Effect
In accordance with the method of M. P. Mattoson [M. P. Mattoson, Brain Res. Rev., 13, 179 (1988)], brain of 18-days fetus rats of Wister strain were taken out. Then, cells of cerebral cortex (5,500 cells/m^2) were seeded on poly-L-lysine coated 6 wells plate (Falcon) (3.5 mm, Sumilon) and incubated for 7 days.
Test compounds were added on culture day 5, and after 7 days of incubation, the protein was extracted with homogenized buffer-solution [containing 20 mM of Tris-HCl (pH=7.4), 1 mM of EDTA, and 0.1 mM of phenylmethylsulfonyl fluoride].
The effect of the test compounds was determined by the western blot technique using polyclonal anti calbindine D28K (Swant Co., Ltd.) as antibody.
In the table, the amount of induced calbindine D28Kd of the control group (none-treated group) was indicated as 100 percents.

[2] = system: rats of slc:Wister strain; test: Cerebral edema suppressing effect (brain injury by metal screw); format: in vivo; details: rat, water content of injured hemisphere 6 days after operation
Experimental: Biological Test 3: Cerebral Edema Suppressing Effect 8-week-old rats of slc:Wister strain were used. Rats were anesthetized by intraperitoneal administration of 50 mg/kg of Nembutal (Trade Name), and then, fixed on brain fixactor. The sterile metal screw (3.75 mm in length/1.0 mm in diameter/0.75 mm in length of screw thread) was plugged in the 1.5 mm right and 0.8 mm rear side of the bregma to press frontparietal cortex organ to cause brain injury. 6 days after the operation, the whole brain was taken out and right cerebral hemisphere (injured side) was isolated. After measurement of the wet weight of the cerebral hemisphere, it was dried at 110° C. for 24 hours on aluminum foil. The dry weight of the cerebral hemisphere was measured, and the water content was calculated by using the following formula: Water content (%)=[(wet weight of hemisphere−dry weight of hemisphere)/wet weight of hemisphere]×100 The test compounds were intravenously administered just after the operation via tail vein of the rats.

[3] = system: cells of cerebral cortex; test: Cytoprotective effect against glutamate induced cell death (MTT); format: cell-based, rats of Wister strain; details: compound 1 μM added 24 h before 1 mM glutamate, fetal rat cerebral cortex cells, control group = 100%; for viability at 1 µM: read-out: Survival Rate (%) (Compound: 1 μM)
Experimental: Biological Test 1: Cytoprotective Effect Against Glutamate Induced Cell Death
In accordance with the method of M. P. Mattoson [M. P. Mattoson, Brain Res. Rev., 13, 179 (1988)], brain of 18-days fetus rats of Wister strain were taken out. Then, cells of cerebral cortex (4×10^5 cells/ml) were seeded on poly-L-lysine coated 96 wells flat bottom plate (Sumitomo Bakelite Co., Ltd.) in concentration of 4×10^4 cells/each well. After 48 hours of incubation, 1 μM of test compounds were added, then after further 24 hours, 1 mM of glutamate were further added for inducing the cell injury. 12 hours after adding glutamate, MTT [3-(4,5-dimethylthiazol)-2,5-diphenyltetrazolium bromide] was added and incubated for 6 hours.
After incubation, 200 μl of dimethy sulfoxide was added to each wells, and the amounts of reduced MTT were calorimetrically analyzed by Micro ELISA Reader using 570 nm of main-wavelength and 650 nm of sub-wavelength.
The effect of the test compounds was determined as the survival rate of living cells (%) according to the following equation: Survival rate of living cells (%)=[(test compound group−glutamate treated group)÷(control group−glutamate treated group)]×100
That is, the survival rate of living cells after incubation of the control group was converted to 100%, and the survival data of living cells of the tested compounds was shown in Table II.

[4] = 3 mg/kg intravenously just after operation
[5] = 1 mg/kg intravenously just after operation

SMILES | Amount of induced Calbindine D28Kd (% vs. control) (Compound: 1 μM) [1] | Cerebral edema suppressing rate (%) [2, 4] [%] | Survival Rate (%) (Compound: 1 μM) [3] | Cerebral edema suppressing rate (%) [2, 5] [%] | viability at 1 µM [3] [%]
Cc1cc(OCC(=O)N(C)C2CCN(CC(=O)Nc3ccccc3)CC2)c(C)c(C)c1N [Compound 29, 2-(4-Amino-2,3,5-trimethylphenoxy)-N-[1-(2-anilino-2-oxyethyl)-4-piperidinyl]-N-methylacetamide] | 122 | 30.9 | – | – | –
Cc1c(C)c(NCC(=O)N(C)C2CCN(CCc3ccccc3)CC2)c(C)c(C)c1N [Compound 40, 2-(4-Amino-2,3,5,6-tetramethylanilino)-N-methyl-N-[1-(2-phenethyl)-4-piperidinyl]acetamide] | 150 | 20.5 | 108 | 31.1 | –
Cc1cc(OC(C)(C)C(=O)N(C)C2CCN(CC(=O)Nc3ccccc3)CC2)c(C)c(C)c1N [Compound 42, 2-(4-Amino-2,3,5-trimethylphenoxy)-2-methyl-N-[1-(2-anilino-2-oxyethyl)-4-piperidinyl]-N-methylpropamide] | – | 31.0 | 131 | 24.5 | –
Cc1cc(OCC(=O)NC2CCN(CC(=O)NC3(c4ccccc4)CC3)CC2)c(C)c(C)c1N [Compound 104, 2-(4-Amino-2,3,5-trimethylphenoxy)-N-[1-(2-(1-phenylcyclopropyl)amino-2-oxyethyl)-4-piperidinyl]acetamide] | – | 18.9 | 117 | – | –
Cc1cc(OCC(=O)N(C)C2CCN(CC(=O)N(C)c3ccccc3)CC2)c(C)c(C)c1N [Compound 105, 2-(4-Amino-2,3,5-trimethylphenoxy)-N-methyl-N-[1-(2-(N-methylanilino)-2-oxyethyl)-4-piperidinyl]acetamide] | – | 23.2 | 86 | – | –
Cc1cc(OCC(=O)NC2CCN(CC(=O)N(C)c3ccccc3)CC2)c(C)c(C)c1N [Compound 108] | – | 20.3 | – | – | –
Cc1c(C)c(NCC(=O)N(C)C2CCN(CC(C(=O)O)c3ccccc3)CC2)c(C)c(C)c1N (centres unmarked) [Compound 109, 3{4-[[2-(4-Amino-2,3,5,6-tetramethylanilino)-acetyl](methyl)amino]-1-piperidino}-2-phenylpropionic acid] | – | 24.7 | 76 | – | –
Cc1c(C)c(NCC(=O)N(C)C2CCN(CC(=O)c3ccccc3)CC2)c(C)c(C)c1N [Compound 111, 2-(4-Amino-2,3,5,6-tetramethylanilino)-N-methyl-[1-(2-phenyl-2-oxyethyl)-4-piperidinyl]acetamide] | 167 | 25.0 | 84 | – | –
Cc1c(C)c(NCC(=O)N(C)C2CCN(CC(O)c3ccccc3)CC2)c(C)c(C)c1N (centres unmarked) [Compound 112, 2-(4-Amino-2,3,5,6-tetramethylanilino)-N-[1-(2-hydroxy-2-phenylethyl)-4-piperidinyl]-N-methylacetamide] | – | 20.7 | – | – | 76
Cc1c(C)c(NCC(=O)N(C)C2CCN(CC3CC3)CC2)c(C)c(C)c1N [Compound 113] | – | 20.0 | 74 | – | –
Cc1c(C)c(NCC(=O)N(C)C2CCN(CCN3CCOCC3)CC2)c(C)c(C)c1N [Compound 119, 2-(4-Amino-2,3,5,6-tetramethylanilino)-N-methyl-N-{1-[2-(4-morpholinyl)ethyl]-4-piperidinyl}acetamide] | – | – | – | 21.6 | 115
Cc1cc(C)c(NCC(=O)N(C)C2CCN(CC(=O)c3ccccc3)CC2)c(C)c1N [Compound 127, 2-(3-Amino-2,4,6-trimethylanilino)-N-methyl-N-[1-(2-phenyl-2-oxyethyl)-4-piperidinyl]acetamide] | – | – | 72 | – | –
Cc1cc(C)c(NCC(=O)N(C)C2CCN(C(=O)c3ccccc3)CC2)c(C)c1N [Compound 128, 2-(3-Amino-2,4,6-trimethylanilino)-N-(1-benzoyl-4-piperidinyl)-N-methylacetamide] | 171 | 20.3 | – | – | 81
Cc1cc(C)c(NCC(=O)N(C)C2CCN(CC3CC3)CC2)c(C)c1N [Compound 129, 2-(3-Amino-2,4,6-trimethylanilino)-N-[1-(cyclopropylmethyl)-4-piperidinyl]-N-methylacetamide] | – | – | – | – | 64
Cc1cc(C)c(NCC(=O)N(C)C2CCN(S(=O)(=O)c3ccccc3)CC2)c(C)c1N [Compound 130, 2-(3-Amino-2,4,6-trimethylanilino)-N-methyl-N-[1-(phenylsulfonyl)-4-piperidinyl]acetamide] | – | – | – | – | 60
Cc1cc(C)c(NCC(=O)N(C)C2CCN(Cc3ccccc3)CC2)c(C)c1N [Compound 131, 2-(3-Amino-2,4,6-trimethylanilino)-N-(1-benzyl-4-piperidinyl)-N-methylacetamide] | – | – | – | – | 65
CCCCN1CCC(N(C)C(=O)CNc2c(C)cc(C)c(N)c2C)CC1 [Compound 132, 2-(3-Amino-2,4,6-trimethylanilino)-N-(1-butyl-4-piperidinyl)-N-methylacetamide] | – | – | – | 30.4 | 60
Cc1cc(C)c(NCC(=O)N(C)C2CCN(Cc3ccc4ccccc4c3)CC2)c(C)c1N [Compound 133, 2-(3-Amino-2,4,6-trimethylanilino)-N-methyl-N-[1-(2-naphthyl)methyl-4-piperidinyl]acetamide] | – | – | – | – | 101
Cc1cc(C)c(NCC(=O)N(C)C2CCN(C(=O)c3cccc(C(F)(F)F)c3)CC2)c(C)c1N [Compound 134, 2-(3-Amino-2,4,6-trimethylanilino)-N-methyl-N-[1-(3-trifluoromethylbenzoyl)-4-piperidinyl]acetamide] | – | 35.0 | – | 27.9 | 79
Cc1cc(C)c(N(C)C)c(C)c1NCC(=O)N(C)C1CCN(C(=O)c2ccccc2)CC1 [Compound 135, N-(1-benzoyl-4-piperidinyl)-2-(3-dimethylamino-2,4,6-trimethylanilino)-N-methylacetamide] | – | – | – | – | 76
CN(C(=O)CNc1cc(Cl)c(N)cc1Cl)C1CCN(CCc2ccccc2)CC1 [Compound 138, 2-(4-Amino-2,5-dichloroanilino)-N-methyl-N-[1-(2-phenethyl)-4-piperidinyl]acetamide] | – | – | 42 | – | –
CN(C(=O)CNc1c(Cl)cc(N)cc1Cl)C1CCN(CC(=O)Nc2ccccc2)CC1 [Compound 139, 2-(4-Amino-2,6-dichloroanilino)-N-[1-(2-anilino-2-oxyethyl)-4-piperidinyl]-N-methylacetamide] | – | – | 53 | – | –
